A word on the melting point: it is the temperature of the solid-liquid transition. In general, IC50 refers to the concentration at which inhibition is half-maximal.

Consider 17 compounds from paper PMC6711126, “Novel 2-phenoxypyrido[3,2-b]pyrazin-3(4H)-one derivatives as potent and selective aldose reductase inhibitors with antioxidant activity” (Journal of Enzyme Inhibition and Medicinal Chemistry, 2019).

In data set [1] the target is T1, AKR1A1 isolated from rat kidneys (Rattus norvegicus, UniProt P51635).
T1 construct: aldehyde reductase (AKR1A1) isolated from rat kidneys; from tissue; host or cells: rat kidneys
T1 sequence (P51635 1-325): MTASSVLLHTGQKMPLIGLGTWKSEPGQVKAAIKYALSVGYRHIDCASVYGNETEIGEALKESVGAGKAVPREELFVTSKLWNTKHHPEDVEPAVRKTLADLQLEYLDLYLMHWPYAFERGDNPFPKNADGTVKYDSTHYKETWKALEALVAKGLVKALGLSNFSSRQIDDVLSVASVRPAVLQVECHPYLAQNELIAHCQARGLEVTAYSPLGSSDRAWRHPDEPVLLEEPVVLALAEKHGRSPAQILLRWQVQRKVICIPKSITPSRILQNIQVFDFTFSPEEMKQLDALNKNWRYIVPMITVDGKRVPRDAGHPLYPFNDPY
As to the kind of experiment: AKR1A1 (aldehyde reductase) inhibition, NADPH oxidation with sodium D-glucuronate as substrate. It is filed as biochemical. The conditions noted are these: rat kidney enzyme, pH 7.2, 37 °C. As for the experimental part:
(§1) All new synthetic compounds 4a–o were tested for their potential inhibitory activity of AKR1B1 isolated from rat lenses. Besides, the inhibitory activity of aldehyde reductase (AKR1A1) isolated from rat kidneys was also investigated to evaluate the selectivity for AKR1B1. The enzyme AKR1A1 is closely related to AKR1B1, and plays an important role in physiological detoxification. […] Additionally, the antioxidant activity was assessed by using the model reaction with the stable free radical of 2,2-diphenyl-1-picrylhydrazyl (DPPH) according to the modified method, which was first employed by Blois[23].
The AKR1A1 inhibition activity was performed in a reaction mixture containing 0.25 mL NADPH (0.12 mM), 0.1 mL enzyme extract, 0.25 mL sodium phosphate buffer (pH = 7.2, 0.1 M), 0.15 mL deionized water, and 0.25 mL sodium D-glucuronate (20 mM) as substrate in a final volume of 1 mL. Before adding to sodium D-glucuronate, the reaction mixture was incubated at 37 °C for 10 min, and then the substrate was added to start the reaction, which was monitored for 4 min.
(§2) The inhibitory activity of the newly synthesized compounds against AKR1B1 and AKR1A1 was assayed by adding 5 μL of the inhibitor solution to the reaction mixture described above. All compounds were dissolved in dimethyl sulfoxide (DMSO) and diluted with deionized H2O. To correct for the nonenzymatic oxidation of NADPH, the rate of NADPH oxidation in the presence of all the reaction mixture components except the substrate was subtracted from each experimental rate. The inhibitory effect of the synthetic compounds was routinely estimated at 10^-4 M (the concentration is referenced to that of the compound in the reaction mixture).

In data set [2] the target is T2, AKR1B1 isolated from rat lenses (Rattus norvegicus, UniProt P07943).
T2 construct: AKR1B1 isolated from rat lenses; from tissue; host or cells: rat lenses
As to the kind of experiment: AKR1B1 (aldose reductase) inhibition, NADPH oxidation with D,L-glyceraldehyde as substrate. It is filed as biochemical. Particulars: rat lens enzyme, pH 6.2, 30 °C. On the procedure: Besides, the inhibitory activity of aldehyde reductase (AKR1A1) isolated from rat kidneys was also investigated to evaluate the selectivity for AKR1B1. The enzyme AKR1A1 is closely related to AKR1B1, and plays an important role in physiological detoxification. […] Additionally, the antioxidant activity was assessed by using the model reaction with the stable free radical of 2,2-diphenyl-1-picrylhydrazyl (DPPH) according to the modified method, which was first employed by Blois[23].
The AKR1B1 inhibition activity was performed in a reaction mixture containing 0.25 mL NADPH (0.10 mM), 0.25 mL sodium phosphate buffer (pH = 6.2, 0.1 M), 0.1 mL enzyme extract, 0.15 mL deionized water, and 0.25 mL D,L-glyceraldehyde (10 mM) as substrate in a final volume of 1 mL. Before adding to D,L-glyceraldehyde, the reaction mixture was incubated at 30 °C for 10 min, and then the substrate was added to start the reaction, which was monitored for 4 min.
as §2

Data set [3] in a line: DPPH radical scavenging assay. Particulars: methanol, 517 nm; for DPPH/sca% 10 μM: compound 10 μM; for DPPH/sca% 50 μM: compound 50 μM; for DPPH/sca% 100 μM: compound 100 μM. As for the experimental part: as §1
The antioxidant activity of all synthesised compounds was determined with the DPPH model reaction and […] (Trolox) was employed as a positive control (Table 2).
To investigate the antiradical activity of target compounds in a homogeneous system, a method based on the scavenging of the stable free radical DPPH was employed. A 100 μL of methanolic solution of various compounds with different concentrations was added to 1 mL DPPH methanolic solution (2.5 × 10^-5 g/mL) and 1.9 ml methanol solution to give final concentrations of 0.1, 0.05, 0.01 mM for the tested compounds, respectively. After vortexing thoroughly and leaving for 30 min at room temperature, the optical density was measured at λ 517 nm using the Shimadzu UV-1800 spectrophotometer. The tested compounds and the reference (Trolox) were dissolved in methanol, and after 240 min (steady state), the percentage of DPPH radical scavenging was determined by the equation as shown below. The experiments were performed in triplicate.
Background: Loss of DPPH colour is used to gauge radical scavenging.

Values joined by “and” are separate entries in the source; they are usually repeats but may differ in a detail not shown here. Equal values may be shown once.

For `O=C(O)Cn1c(=O)c(Oc2cc(O)cc(O)c2)nc2cc(Cl)cnc21` [4k, 2-(7-chloro-2-(3,5-dihydroxyphenoxy)-3-oxopyrido[3,2-b]pyrazin-4(3H)-yl)acetic acid], the melting point was in the range of 232 to 236 °C. This compound also yielded an IC50 in data set [1] of 18.4 ± 1.34 µM. This compound came in with an IC50 in data set [2] of 0.023 ± 0.003 µM. In data set [3], the “DPPH/sca% 10 μM” value was 49.1 ± 2.4%, the “DPPH/sca% 50 μM” value is on record as 76.4 ± 0.9% and the “DPPH/sca% 100 μM” value was found to be 94.8 ± 1.1%.

For `O=C(O)Cn1c(=O)c(Oc2ccc(O)cc2)nc2cccnc21` [4f, 2-(2-(4-hydroxyphenoxy)-3-oxopyrido[3,2-b]pyrazin-4(3H)-yl)acetic acid], the melting point was 231 to 239 °C. Also, the IC50 in data set [1] is 15.9 ± 0.781 µM. This compound also gave an IC50 in data set [2] of 0.121 ± 0.01 µM. For the same compound, the “DPPH/sca% 100 μM” value in data set [3] is 37.7 ± 1.0%.

Take `CC(/C=C1\SC(=S)N(CC(=O)O)C1=O)=C\c1ccccc1` [Epalrestat, reference compound]: the midpoint of inhibition in data set [1], the IC50, lay at 55.7 ± 3.29 µM.

On to `Cc1c(C)c2c(c(C)c1O)CCC(C)(C(=O)O)O2` (centres unmarked) [Trolox, […], reference compound], for which, in data set [3], the “DPPH/sca% 10 μM” value was 85.9 ± 0.6%, the “DPPH/sca% 50 μM” value came to 89.8 ± 1.0% and the “DPPH/sca% 100 μM” value is recorded as 96.7 ± 0.8%.

Take `COc1cc(Oc2nc3cccnc3n(CC(=O)O)c2=O)cc(O)c1OC` [4m, 2-(2-(3-hydroxy-4,5-dimethoxyphenoxy)-3-oxopyrido[3,2-b]pyrazin-4(3H)-yl)acetic acid]: the melting point was 237 to 244 °C. Besides, half-maximal inhibition in data set [1] (IC50) was put at 31.6 ± 3.06 µM. For the same compound, in data set [2], the half-inhibitory concentration (IC50) stood at 4.53 ± 0.258 µM. In data set [3], the “DPPH/sca% 50 μM” value came out at 35.9 ± 1.1% and the “DPPH/sca% 100 μM” value was found to be 56.9 ± 1.8%.

`O=C(O)Cn1c(=O)c(Oc2ccc(O)c(O)c2)nc2cccnc21` [4h, 2-(2-(3,4-dihydroxyphenoxy)-3-oxopyrido[3,2-b]pyrazin-4(3H)-yl)acetic acid] registered a melting point of 231 to 236 °C. Also, the half-maximal inhibitory concentration (IC50) in data set [1] was 16.9 ± 0.692 µM. It took 0.305 ± 0.022 µM to reach half-maximal inhibition in data set [2] (IC50). Besides, in data set [3], the “DPPH/sca% 50 μM” value stood at 44.1 ± 2.3% and the “DPPH/sca% 100 μM” value is 74.6 ± 1.4%.

`COc1cc(Oc2nc3cccnc3n(CC(=O)O)c2=O)cc(OC)c1OC` [4e, 2-(3-oxo-2-(3,4,5-trimethoxyphenoxy)pyrido[3,2-b]pyrazin-4(3H)-yl)acetic acid] came in with a melting point of 235 to 243 °C. The IC50 in data set [1] turned out to be 20.9 ± 1.21 µM. For the same compound, the 50% inhibitory concentration (IC50) in data set [2] came out at 7.57 ± 0.431 µM. The “DPPH/sca% 100 μM” value in data set [3] is listed as 17.8 ± 0.9%.

`COc1c(O)cc(Oc2nc3cccnc3n(CC(=O)O)c2=O)cc1O` [4n, 2-(2-(3,5-dihydroxy-4-methoxyphenoxy)-3-oxopyrido[3,2-b]pyrazin-4(3H)-yl)acetic acid]: the melting point fell in the range of 235 to 241 °C. Half-maximal inhibition in data set [1] (IC50) was put at 25.8 ± 1.65 µM. Besides, the half-inhibitory concentration (IC50) in data set [2] is 2.36 ± 0.184 µM. Besides, in data set [3], the “DPPH/sca% 50 μM” value is given as 40.8 ± 1.6% and the “DPPH/sca% 100 μM” value turned out to be 65.7 ± 0.9%.

As for `COc1ccc(Oc2nc3cccnc3n(CC(=O)O)c2=O)cc1OC` [4c, 2-(2-(3,4-dimethoxyphenoxy)-3-oxopyrido[3,2-b]pyrazin-4(3H)-yl)acetic acid], the melting point is 241 to 251 °C. This compound also came in with a 50% inhibitory concentration (IC50) in data set [1] of 17.6 ± 1.02 µM. Moreover, the IC50 in data set [2] came to 5.68 ± 0.608 µM. The “DPPH/sca% 100 μM” value in data set [3] is 21.2 ± 1.5%.

For the compound `COc1cc(O)cc(Oc2nc3cccnc3n(CC(=O)O)c2=O)c1` [4i, 2-(2-(3-hydroxy-5-methoxyphenoxy)-3-oxopyrido[3,2-b]pyrazin-4(3H)-yl)acetic acid], the melting point lay within 229 to 232 °C. The IC50 in data set [1] amounted to 15.1 ± 0.924 µM. Also, the IC50 in data set [2] is 2.85 ± 0.031 µM. Also, in data set [3], the “DPPH/sca% 50 μM” value is 45.2 ± 1.8% and the “DPPH/sca% 100 μM” value was 78.4 ± 0.7%.

As for `O=C(O)Cn1c(=O)c(Oc2cc(O)c(O)c(O)c2)nc2cccnc21` [4o, 2-(3-oxo-2-(3,4,5-trihydroxyphenoxy)pyrido[3,2-b]pyrazin-4(3H)-yl)acetic acid], the melting point lay in the range of 241 to 246 °C. Besides, in data set [1], half-maximal inhibition (IC50) was put at 21.7 ± 1.47 µM. Further, the IC50 in data set [2] was 0.859 ± 0.058 µM. Further, in data set [3], the “DPPH/sca% 10 μM” value was found to be 23.4 ± 2.0%, the “DPPH/sca% 50 μM” value is 65.2 ± 1.9% and the “DPPH/sca% 100 μM” value is given as 88.5 ± 1.4%.

In the case of `COc1ccc(Oc2nc3cccnc3n(CC(=O)O)c2=O)cc1` [4b, 2-(2-(4-methoxyphenoxy)-3-oxopyrido[3,2-b]pyrazin-4(3H)-yl)acetic acid], the melting point was in the range of 234 to 242 °C. The compound also displayed a 50% inhibitory concentration (IC50) in data set [1] of 19.8 ± 1.32 µM. Moreover, in data set [2], the IC50 came to 2.68 ± 0.199 µM. Besides, the “DPPH/sca% 100 μM” value in data set [3] was 18.9 ± 0.8%.

Regarding `O=C(O)Cn1c(=O)c(Oc2ccccc2)nc2cccnc21` [4a, 2-(3-oxo-2-phenoxypyrido[3,2-b]pyrazin-4(3H)-yl)acetic acid], the melting point was 239 to 244 °C. In addition, the IC50 in data set [1] stood at 26.9 ± 1.45 µM. The compound further showed an IC50 in data set [2] of 8.57 ± 0.523 µM. The “DPPH/sca% 100 μM” value in data set [3] is listed as 6.9 ± 1.2%.

In turn, `COc1ccc(Oc2nc3cccnc3n(CC(=O)O)c2=O)cc1O` [4g, 2-(2-(3-hydroxy-4-methoxyphenoxy)-3-oxopyrido[3,2-b]pyrazin-4(3H)-yl)acetic acid] displayed a melting point of 232 to 236 °C. Further, the IC50 in data set [1] was 19.3 ± 1.81 µM. For the same compound, in data set [2], the midpoint of inhibition, the IC50, lay at 2.5 ± 0.203 µM. In data set [3], the “DPPH/sca% 50 μM” value stood at 21.5 ± 1.2% and the “DPPH/sca% 100 μM” value stood at 54.8 ± 1.6%.

In turn, `O=C(O)Cn1c(=O)c(Oc2cc(O)cc(O)c2)nc2cc(Br)cnc21` [4l, 2-(7-bromo-2-(3,5-dihydroxyphenoxy)-3-oxopyrido[3,2-b]pyrazin-4(3H)-yl)acetic acid] showed a melting point of 233 to 235 °C. The 50% inhibitory concentration (IC50) in data set [1] amounted to 19.8 ± 1.41 µM. In data set [2], this compound displayed an IC50 of 0.056 ± 0.005 µM. Moreover, in data set [3], the “DPPH/sca% 10 μM” value was 46.8% and 46.8 ± 1.5%; the “DPPH/sca% 50 μM” value is 80.6% and 80.6 ± 2.0%; the “DPPH/sca% 100 μM” value is 95.3% and 95.3 ± 1.2%.

Take `COc1cc(OC)cc(Oc2nc3cccnc3n(CC(=O)O)c2=O)c1` [4d, 2-(2-(3,5-dimethoxyphenoxy)-3-oxopyrido[3,2-b]pyrazin-4(3H)-yl)acetic acid]: the melting point was in the range of 241 to 247 °C. This compound also registered a concentration for half-maximal inhibition (IC50) in data set [1] of 21.5 ± 1.81 µM. In data set [2], this compound registered an IC50 of 4.3 ± 0.288 µM. For the same compound, the “DPPH/sca% 100 μM” value in data set [3] came to 25.9 ± 1.3%.

The compound `O=C(O)Cn1c(=O)c(Oc2cc(O)cc(O)c2)nc2cccnc21` [4j, 2-(2-(3,5-dihydroxyphenoxy)-3-oxopyrido[3,2-b]pyrazin-4(3H)-yl)acetic acid] returned a melting point of 231 to 237 °C. The compound further gave an IC50 in data set [1] of 20.8 ± 1.5 µM. The same compound gave an IC50 in data set [2] of 0.087 ± 0.007 µM. Besides, in data set [3], the “DPPH/sca% 10 μM” value amounted to 45.3 ± 1.9%, the “DPPH/sca% 50 μM” value worked out at 77.2 ± 1.5% and the “DPPH/sca% 100 μM” value stood at 95.0 ± 0.9%.
